Test [1] has as its target T1, human serotonin transporter (hSERT) (Homo sapiens, UniProt P31645).
T1 construct: expressed in transfected cells; host or cells: HEK-293
As to the kind of experiment: Screening for human serotonin transporter (hSERT) antagonists using a scintillation proximity assay, competition with [3H]-Citalopram. As to conditions: hSERT SPA, membranes of HEK-293 cells expressing recombinant hSERT. The test is classed as binding. The procedure: The screening assay of this example was used to determine the affinity of ligands at the hSERT transporter by competition with [^3H]-Citalopram.
Scintillation Proximity Assay (SPA) works by bringing radioligand within close proximity to the bead's scintillant to stimulate light emission. In this assay, the receptor-containing membranes were pre-coupled to the SPA beads and the binding of the appropriate radioligand to the transporter was measured. The light emission was proportional to the amount of bound radioligand. Unbound radioligand produced no signal as a result of distant proximity to scintillant (lack of energy transfer). […]
(§1) Cell membranes were prepared using a membrane preparation buffer of 50 mM TRIS (pH 7.4). […] After a second centrifugation, the pellet was re-homogenized and brought to a final volume determined during the assay. […]
The % inhibition was calculated for each compound tested [(Compound counts per minute (CPM) at maximum concentration-Non-Specific CPM)/Total CPM*100]. […]
[formula] where max=total binding, min=non specific binding, x=concentration (M) of the tested compound and n=Hill slope. The inhibition dissociation constant (Ki) of each compound was determined according to the method of Cheng-Prusoff and then converted into negative logarithm (pKi) of the Ki.
For orientation: Scintillation proximity formats need no separation of bound from free tracer.

Test [2] has as its target T2, human norepinephrine transporter (hNET) (Homo sapiens, UniProt P23975).
T2 construct: expressed in transfected cells; host or cells: HEK-293 (Clone: HEK-hNET #2)
As to the kind of experiment: Screening for compounds active at human norepinephrine transporter (hNET) using a scintillation proximity assay, competition with [3H]-Nisoxetine. As to conditions: hNET SPA, membranes of HEK-293 cells expressing recombinant hNET. The test is classed as binding. The procedure: This assay was used to determine the affinity of ligands for the hNET transporter by competition with [^3H]-Nisoxetine. As in the hSERT assay of the above example, receptor-containing membranes were pre-coupled to the SPA beads and the binding of the appropriate radioligand to the transporter was measured. The light emission was proportional to the amount of bound radioligand, with unbound radioligand producing no signal.
HEK-293 cells (Tatsumi et al., Eur. J. Pharmacol. 1997, 30, 249-258) stably expressing recombinant hNET (Clone: HEK-hNET #2) were maintained with media (DMEM hi glucose with 10% FBS, 300 μg/ml G418 and 2 mM L-Glutamine) and incubated at 37° C. with 5% CO2. Cells were released from culture flasks using PBS for 1-2 minutes. […]
as §1
^3[H] […] The mixtures were allowed to stand at room temperature for one hour, and were then counted on a Packard TopCount LCS, a generic SPA counting protocol settings (Energy Range: Low, Efficiency Mode: Normal, Region A: 1.50-35.00, Region B: 1.50-256.00, Count Time (min.): 0.40, Background Subtract: none, Half-Life Correction: no, Quench Indicator: tSIS, Platemap blank subtraction: No, Cross talk reduction: Off). […]

Structures are written as SMILES.

This note sets out measurements from patent US7638517B2, “3-Amino-1-arylpropyl azaindoles and uses thereof” (Roche Palo Alto LLC, priority 2005, dated 2009).

T1 sequence (P31645 whole entry): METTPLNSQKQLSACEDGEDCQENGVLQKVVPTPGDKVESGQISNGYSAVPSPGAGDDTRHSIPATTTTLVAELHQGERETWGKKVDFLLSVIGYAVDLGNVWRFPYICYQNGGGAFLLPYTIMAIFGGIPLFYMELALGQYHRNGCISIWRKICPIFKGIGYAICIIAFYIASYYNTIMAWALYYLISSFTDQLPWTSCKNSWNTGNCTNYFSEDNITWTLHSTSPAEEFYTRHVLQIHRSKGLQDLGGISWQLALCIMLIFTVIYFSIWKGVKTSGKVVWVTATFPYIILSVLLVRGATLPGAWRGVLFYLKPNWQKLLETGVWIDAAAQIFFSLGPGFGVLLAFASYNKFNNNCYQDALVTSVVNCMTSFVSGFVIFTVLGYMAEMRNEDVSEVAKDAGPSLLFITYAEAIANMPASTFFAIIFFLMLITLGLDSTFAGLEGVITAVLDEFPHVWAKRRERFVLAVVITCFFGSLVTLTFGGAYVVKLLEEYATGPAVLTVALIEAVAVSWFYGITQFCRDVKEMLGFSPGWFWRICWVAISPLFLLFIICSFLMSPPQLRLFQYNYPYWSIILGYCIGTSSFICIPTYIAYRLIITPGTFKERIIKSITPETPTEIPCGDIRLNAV
T2 sequence (P23975 whole entry): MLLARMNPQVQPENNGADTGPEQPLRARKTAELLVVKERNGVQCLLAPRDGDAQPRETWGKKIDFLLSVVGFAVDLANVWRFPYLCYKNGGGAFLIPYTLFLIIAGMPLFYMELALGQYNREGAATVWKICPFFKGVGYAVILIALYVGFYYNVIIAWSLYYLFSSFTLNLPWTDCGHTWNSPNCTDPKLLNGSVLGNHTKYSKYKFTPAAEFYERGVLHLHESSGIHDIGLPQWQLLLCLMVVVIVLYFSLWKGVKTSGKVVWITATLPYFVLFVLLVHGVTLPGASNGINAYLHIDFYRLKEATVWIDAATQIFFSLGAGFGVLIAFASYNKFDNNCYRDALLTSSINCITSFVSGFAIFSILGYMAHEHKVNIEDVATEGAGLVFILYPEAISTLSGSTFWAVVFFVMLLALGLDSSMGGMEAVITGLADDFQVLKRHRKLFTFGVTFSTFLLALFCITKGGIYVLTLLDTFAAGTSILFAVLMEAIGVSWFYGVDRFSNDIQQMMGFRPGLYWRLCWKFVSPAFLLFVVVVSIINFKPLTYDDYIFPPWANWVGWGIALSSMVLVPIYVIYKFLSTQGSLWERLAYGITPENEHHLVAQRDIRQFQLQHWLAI

As a reminder, the IC50 is the midpoint of a concentration-inhibition curve. As to `CNCC[C@@H](c1ccccc1)c1c[nH]c2nccc(OC)c12` [compound 23, [(S)-3-(4-Methoxy-1H-pyrrolo[2,3-b]pyridin-3-yl)-3-phenyl-propyl]-methyl-amine], the values for the concentration for half-maximal inhibition (IC50) in test [1] and in test [2] were roughly 1.78 nM and roughly 17.8 nM, respectively.
